Laboratory results as given in patent publication US10927117B2 (BEIGENE SWITZERLAND GMBH, priority 2016, dated 2021).
“Also recorded” adds a separate entry of the source.

Legend:
[1] = Nonclinical toxicity studies in rats
Excerpt: (§1) These studies took account the available regulatory guidance for preclinical development of anticancer drugs.

[2] = Nonclinical toxicity studies in dogs
Excerpt: as §1

Tissue distribution = format: in vivo
[3] = tested on: Chronic Lymphocytic Leukemia and Small Lymphocytic Lymphoma (CLL/SLL); assay: Phase 1 trial in patients with CLL/SLL; format: in vivo, human
Description: The dose-escalation component of the trail tested total daily doses between 40 mg and 320 mg, and the ongoing dose-expansion component is testing doses of 160 mg twice a day (BID) or 320 mg once a day (QD). As of Mar. 31, 2017, 69 patients with CLL or SLL (18 TN, […]) were enrolled in the study.

[4] = tested on: rituximab-induced antigen-dependent cell-mediated cytotoxicity (ADCC); assay: Rituximab-induced ADCC inhibition; format: cell-based
[5] = tested on: Mino cells (MCL cell line); assay: Tumor cell proliferation, CellTiter-Glo, Mino; format: cell-based; details: Homo sapiens, 144 h, 6-day exposure, mean of 3 independent assays, read-out: Potency IC50
Description: (§2) 3 MCL cell lines (Rec-1, Mino and JEKO-1) and an ABC type diffuse large B-cell lymphoma cell line (TMD8) were used in this study. Cell lines were maintained in RPMI-1640 supplemented with 10% fetal bovine serum/FBS (Thermo Scientific); 100 units/ml penicillin (Gibco) and 0.1 mg/ml streptomycin (Gibco) and kept at 37° C. in a humidified atmosphere of 5% CO2 in air. Cell lines were reinstated from frozen stocks that were laid down within 30 passages from the original cells purchased.
(§3) The growth-inhibitory activity of compounds in Rec-1, Mino, JEKO-1 and TMD-8 cells was determined using CellTiter-Glo luminescent cell viability assay (Promega). The number of cells seeded per well of a 96-well plate was optimized for each cell line to ensure logarithmic growth over 6 days treatment period. Cells were treated in triplicate with a 10-point dilution series. […] Mixture was mixed on an orbital shaker for 2 minutes to allow cell lysis, followed by 10 minutes incubation at room temperature to allow development and stabilization of luminescent signal, which corresponded to quantity of ATP and thus the quantity of metabolically active cells. Luminescent signal was measured using PHERAstar FS reader (BMG Labtech). IC50 values for cell viability were determined with GraphPad Prism software and were the mean of 3 independent assays.

[6] = tested on: JEKO-1 cells (MCL cell line); assay: Tumor cell proliferation, CellTiter-Glo, JEKO-1; format: cell-based; details: Homo sapiens, 144 h, JEKO-1 cell line, 6-day exposure, read-out: Potency IC50
Description: as §2, §3

[7] = tested on: TMD8 cells (ABC type diffuse large B-cell lymphoma cell line); assay: Tumor cell proliferation, CellTiter-Glo, TMD-8; format: cell-based; details: Homo sapiens, TMD8, 144 h; TMD-8 cell line, DLBCL(ABC); 6-day exposure; mean of 3 independent assays; read-out: Potency IC50
Description: as §2, §3

[8] = Pharmacokinetics study in mouse; format: in vivo; details: ICR mice, oral gavage
Description: For time course study, mice were randomly assigned into 7 groups with 4 mice per group. […] For dose dependency study, mice were randomly assigned into 9 groups with 4 mice per group. […] Treatments were administered by oral gavage (p.o.) in a volume of 10 ml/kg body weight. Body weight was assessed immediately before dosing and volume dosed was adjusted accordingly.
PK SAMPLE PREPARATION: For time course study, blood samples (50 μL per mouse) were collected from the retro-orbital sinus under isoflurane/oxygen anesthesia at 15 min after dosing (this group of mice were also used for 24 hr time point) or heart puncture after euthanization for the other time points. For dose dependency study, blood samples were collected from the retro-orbital sinus under isoflurane/oxygen anesthesia at 30 minutes after dosing. Plasma was collected by centrifugation at 3,000 g for 10 minutes and was kept frozen in −80° C. until analysis.
PK Analysis: maximum plasma concentration (Cmax) and time to reach Cmax (Tmax) were taken directly from the plasma concentration versus time profiles.

[9] = Pharmacokinetics in dogs (LC-MS/MS); format: in vivo, beagle dogs
[10] = Physical and long term stability test; format: physicochemical
Hygroscopic test (DVS) = format: physicochemical; details: 80% RH, 25° C.
Description: The dynamic vapor sorption (DVS) plots shown as in FIG. 6 was collected a SMS (Surface Measurement Systems) DVS Intrinsic. The DVS parameters used includes: temperature (25° C.); dm/dt (0.002%/min); Min. dm/dt stability duration (10 min); Max. equilibrium time (180 min); RH range (0% RH to 95% RH); RH step size(10% RH from 0% RH to 90% RH, 5% RH from 90% RH to 95% RH).

[11] = CLL/SLL, adverse event of interest
[12] = 25° C./60% RH for up to 24 months
[13] = 40° C./75% RH for up to 6 months

C=CC(=O)N1CCC([C@@H]2CCNc3c(C(N)=O)c(-c4ccc(Oc5ccccc5)cc4)nn32)CC1 [Compound 1, (S)-7-(1-acryloylpiperidin-4-yl)-2-(4-phenoxyphenyl)-4,5,6,7-tetra-hydropyrazolo[1,5-a]pyrimidine-3-carboxamide]
overall tolerance and severe toxicities compared with ibrutinib ([1]; rat single and repeat dose toxicity studies up to 28 days): safer than ibrutinib | overall tolerance and severe toxicities compared with ibrutinib ([2]; dog single and repeat dose toxicity studies up to 28 days): safer than ibrutinib | level in brain tissue (Tissue distribution; brain): low in brain tissue | tissue distribution (Tissue distribution; various tissues): widely distributed to various tissues | AE arthralgia ([3]; CLL/SLL): 12% | AE cough ([3]; CLL/SLL): 23% | AE diarrhea ([3]; CLL/SLL): 22% | AE fatigue ([3]; CLL/SLL): 29% | AE headache ([3]; CLL/SLL): 19% | AE hematuria ([3]; CLL/SLL): 15% | AE muscle spasms ([3]; CLL/SLL): 12% | AE nausea ([3]; CLL/SLL): 13% | AE rash ([3]; CLL/SLL): 13% | AE upper respiratory tract infection ([3]; CLL/SLL): 28% | AE urinary tract infection ([3]; CLL/SLL): 12% | number of serious AEs (SAEs) ([3]; CLL/SLL): 18 | patients with serious AEs ([3]; CLL/SLL): 13 | overall response rate (ORR) ([3]; CLL/SLL, 66 evaluable patients, median follow-up 10.5 months): 94% | PRs with lymphocytosis (PR-Ls) ([3]; CLL/SLL, 66 patients): 9% | complete responses (CRs) ([3]; CLL/SLL, 66 patients): 3% | partial responses (PRs) ([3]; CLL/SLL, 66 patients): 82% | grade 2 atrial fibrillation [3, 11]: one case | grade 2 diarrhea [3, 11]: one case | AE petechiae/purpura/contusion ([3]; CLL/SLL, any attribution): 46% | patients who discontinued treatment due to an AE ([3]; CLL/SLL, grade 2 pleural effusion): one patient | treatment discontinuation rate ([3]; CLL/SLL, median follow-up 10.5 months): 3% | major bleeding event ([3]; CLL/SLL, subcutaneous hemorrhage): one case of grade 3 purpura | CRs ([3]; R/R CLL/SLL, 50 patients): 2% | PR-Ls ([3]; R/R CLL/SLL, 50 patients): 8% | PRs ([3]; R/R CLL/SLL, 50 patients): 82% | stable disease ([3]; R/R CLL/SLL, 50 patients): 6% | ORR ([3]; R/R CLL/SLL, 50 patients, median follow-up 14.0 months): 92% | CRs ([3]; TN CLL/SLL, 16 patients): 6% | PR-Ls ([3]; TN CLL/SLL, 16 patients): 13% | PRs ([3]; TN CLL/SLL, 16 patients): 81% | ORR ([3]; TN CLL/SLL, 16 patients, median follow-up 7.6 months): 100% | inhibition of rituximab-induced ADCC compared with ibrutinib [4]: significantly less inhibition

C=CC(=O)N1CCC([C@@H]2CCNc3c(C(N)=O)c(-c4ccc(Oc5ccccc5)cc4)nn32)CC1 [Crystalline Form A, (S)-7-(1-acryloylpiperidin-4-yl)-2-(4-phenoxyphenyl)-4,5,6,7-tetra-hydropyrazolo[1,5-a]pyrimidine-3-carboxamide]
IC50 [5]: 3.8 nM | IC50 [6]: 20 nM | IC50 [7]: 0.54 nM | absorption and elimination [8]: quickly absorbed and eliminated | test article-related mortality ([1]; rat, in vivo): No test article-related mortality | changes in clinical chemistry or coagulation ([1]; rats): No toxicologically significant changes | test article-related mortality ([2]; dog, in vivo): No test article-related mortality | changes in clinical chemistry or coagulation ([2]; dogs): No toxicologically significant changes | accumulation following multiple oral dosing [9]: no accumulation | bioavailability (F %) [9]: reasonably good bioavailability | clearance (CL) [9]: moderate clearance | linearity of PK over the dose range [9]: linear PK over the dose range | crystal form change [10, 12]: no crystal form and optical purity changes; also recorded: no crystal form change | optical purity change [10, 12]: no crystal form and optical purity changes | chemical purity (% area) T0 ([10]; 25° C./60% RH): 99.2% | chemical purity (% area) T12 ([10]; 25° C./60% RH, T12): 99.2% | crystal form change [10, 13]: no crystal form and optical purity changes; also recorded: no crystal form change | optical purity change [10, 13]: no crystal form and optical purity changes | chemical purity (% area) T0 ([10]; 40° C./75% RH): 99.1% | chemical purity (% area) T6 ([10]; 40° C./75% RH, T6): 99.4% | crystal form change (XRPD) ([10]; 80° C. for two days): no crystal form change | increase of mass (DVS) (Hygroscopic test (DVS)): about 0.8%
